Results taken from patent publication US10624893B2 (priority 2016, dated 2020).
Converted amounts (≈) assume the structure as drawn. Where two headings read alike, the source gives them in different places.

How the values were obtained:
[1] = system: Mycobacterium tuberculosis growing inside human THP-1 monocytes; assay: Intracellular viability assay 1b (THP-1, luciferase, Bright-Glo); format: cell-based, Mycobacterium tuberculosis H37Rv; details: THP-1, 120 h
[2] = system: Mycobacterium tuberculosis growing inside murine Raw 264.7 cell line; assay: microbe, parasite or virus in culture; format: cell-based; details: H37RV, RAW264.7, 120 h
[3] = system: Mycobacterium bovis BCG str. Pasteur 1173P2; assay: microbe, parasite or virus in culture; format: cell-based
[4] = system: Mycobacterium tuberculosis growing inside human THP-1 monocytes; assay: Intracellular viability assay 1a (THP-1, luciferase, Steady-Glo); format: cell-based, Mycobacterium tuberculosis H37Rv; details: THP-1, 120 h
[5] = system: Mycobacterium tuberculosis (H37Rv strain from ATCC cat #27294) expressing the green-fluorescent protein (GFP); assay: microbe, parasite or virus in culture; format: cell-based; details: 120 h
M. africanum = assay: Extracellular MIC assay of Example 7, M. africanum; format: cell-based; details: Mycobacterium tuberculosis, cholesterol medium
[6] = system: Mycobacterium tuberculosis Erdman strain; assay: Extracellular viability assay, Erdman strain, cholesterol media (Method 3); format: cell-based; details: 0.01% cholesterol medium, 7 days + 48 h resazurin, average over 5 measurements
M. bovis 0AF2122 = assay: microbe, parasite or virus in culture; format: cell-based; details: Mycobacterium tuberculosis variant bovis, 0AF2122, read-out: MIC 2
[7] = system: M. tuberculosis H37Rv strain; details: for reduction of microorganism burden in lungs with respect to untreated controls (Day 9): C57BL/6 mice
[8] = system: M. tuberculosis strain H37Rv; assay: Extracellular viability assay, glucose media (Method 2), resazurin MIC; format: cell-based; details: Mycobacterium tuberculosis
[9] = read-out: IC50 (uM) (cholesterol media)
[10] = read-out: IC50 (uM) (glucose media)

Structure (SMILES)	IC50 [1]	IC50 [2]	inhibition at 2 µM ([3]; Mycobacterium tuberculosis variant bovis BCG, BCG)	IC50 [4]	IC50 [5, 9]	IC50 [5, 10]	MIC (M. africanum; read-out: MIC 1)	MIC (M. africanum; read-out: MIC 2)	IC50 [6]	% Inhibition [3]	MIC (M. bovis 0AF2122)	reduction of microorganism burden in lungs with respect to untreated controls (Day 9) ([7]; 200 mg/kg once a day for 8 days)	oral bioavailability (conclusion from murine in vivo data) ([7]; mouse)	MIC [8]	reduction of microorganism burden in lungs with respect to untreated controls (Day 9) ([7]; 30 mg/kg once a day for 8 days)
CO[C@H]1/C=C/O[C@@]2(C)Oc3c(C)c(O)c4c(O)c(c(/C=N/N5CCN(C)CC5)c(O)c4c3C2=O)NC(=O)/C(C)=C\C=C\[C@H](C)[C@H](O)[C@@H](C)[C@@H](O)[C@@H](C)[C@H](OC(C)=O)[C@@H]1C [Rifampicin, reference compound]	2 nM	200 nM	100%	10 nM	0.04 µM	0.02 µM									
NNC(=O)c1ccncc1 [Isoniazid]		70 nM			0.2 µM	0.5 µM									
Cc1cccc(OC2CCN(Cc3cc(=O)[nH]c(=O)[nH]3)CC2)c1C [Test Compound, 6-((4-(2,3-dimethylphenoxy)piperidin-1-yl)methyl)pyrimidine-2,4(1H,3H)-dione]	70 nM	60 nM		390 nM	0.28 µM	> 20 µM	1.2 µM (≈ 0.395 µg/mL)	1.2 µM (≈ 0.395 µg/mL)	874 nM	46.18%	0.78 µM (≈ 0.257 µg/mL)	1.6 log10 CFU	orally bioavailable	> 12.5 µM	
COc1c(N2C[C@@H]3CCCN[C@@H]3C2)c(F)cc2c(=O)c(C(=O)O)cn(C3CC3)c12 [Moxifloxacin, reference compound]															3.2 log10 CFU
